According to patent US20250228807A1, “TRANEXAMIC CLASS ARGININE AND HISTIDINE MIMICS AS THERAPEUTIC AGENTS” (Tranexamic Technologies, LLC, priority 2022, published 2025):
Entries after “also recorded” stand apart in the source; their conditions may differ.

Key:
[1] = Aqueous solubility / preparation of solutions in PBS buffer; assay type: physicochemical; conditions: for solubility: concentration of solution: PBS buffer
Experimental: Chemical synthesis and solubility. TA was purchased from commercial sources and TA-NAc was prepared straightforwardly through acetylation of TA based on standard practices.
TA-R1-R4 were accessible from their corresponding amino acids through treatment with methylisothiourea hemisulfate. […] Esterification of TA-R1 to produce TA-R1OMe, a novel compound, improved the solubility for preparation of a 2% (w/v) solution in phosphate buffered saline (PBS) buffer (pH=7.4) and biological testing.
The requisite amino acids for synthesis of TA-R3/R4 required multistep synthetic approaches. Briefly, the preparation of TA-R3, a novel compound, began from cis-1,3-cyclohexanedicarboxylic acid and proceeded through eight sequential synthetic steps to afford the product as its HCl salt. Protection/deprotection of the amino group was required to facilitate purification, as was a stepwise oxidation sequence from the alcohol to the carboxylic acid. […] The approach to TA-R4, a known compound, required one additional step to produce the starting dicarboxylic acid, in this case through oxidative cleavage of norbornene. […] All the final compounds were fully characterized by ^1H nuclear magnetic resonance (NMR), ^13C NMR, and high-resolution electrospray ionization mass spectrometry (HRMS-ESI).

[2] = tested on: MDA-MB 468 triple-negative breast cancer cells; test: MTT cell viability assay; assay type: cell-based; conditions: MDA-MB-468, 72 h, relative to TA
Experimental: Effects of compounds on cell viability. MDA-MB 468 triple-negative breast cancer cells were plated at 6,250 cells per well in a 96-well plate and incubated overnight at 37° C. Cell viability was evaluated using the MTT (3-(4,5-dimethylthiazol-2-yl)-2,5-diphenyltetrazolium bromide) assay carried out according to manufacturer's instructions.

[3] = tested on: programmed death-ligand 1 (PD-L1); test: Immunoblot analysis of treated MDA-MB-468 cells: PD-L1 expression; assay type: cell-based; conditions: high (2%) concentration
Source text: (§1) Biochemical evaluation of treatment of breast cancer cells with TA-R2. […] This is important because PD-L1 expression in cancer cells blocks T-cell-based immunity. So, TA-R2 would be predicted to increase anticancer immunity in immunocompetent systems. Histone acetyltransferase (HAT) enzyme assays were used to determine if TA-R2 inhibits p300 activity. […] This fits with the hypothesis that TAs act in part by inhibiting acetyltransferases such as p300/CPB that acetylate histones. No acetylation is observed in controls upon omission of H3/p300 or acetyl coenzyme A (Acetyl CoA).

[4] = tested on: MYC oncogene; test: Immunoblot analysis of treated MDA-MB-468 cells: MYC expression; assay type: cell-based
Source text: as §1

[5] = biological target: T1, recombinant p300 (Homo sapiens, UniProt Q09472); test: p300 histone acetyltransferase (HAT) enzyme assay; assay type: biochemical; conditions: for p300 acetylation of Histone 3 (H3) in vitro: recombinant p300, Histone H3, tritiated acetyl CoA, TA at 2%
T1 construct: purchased
T1 sequence (Q09472 whole entry, species assumed): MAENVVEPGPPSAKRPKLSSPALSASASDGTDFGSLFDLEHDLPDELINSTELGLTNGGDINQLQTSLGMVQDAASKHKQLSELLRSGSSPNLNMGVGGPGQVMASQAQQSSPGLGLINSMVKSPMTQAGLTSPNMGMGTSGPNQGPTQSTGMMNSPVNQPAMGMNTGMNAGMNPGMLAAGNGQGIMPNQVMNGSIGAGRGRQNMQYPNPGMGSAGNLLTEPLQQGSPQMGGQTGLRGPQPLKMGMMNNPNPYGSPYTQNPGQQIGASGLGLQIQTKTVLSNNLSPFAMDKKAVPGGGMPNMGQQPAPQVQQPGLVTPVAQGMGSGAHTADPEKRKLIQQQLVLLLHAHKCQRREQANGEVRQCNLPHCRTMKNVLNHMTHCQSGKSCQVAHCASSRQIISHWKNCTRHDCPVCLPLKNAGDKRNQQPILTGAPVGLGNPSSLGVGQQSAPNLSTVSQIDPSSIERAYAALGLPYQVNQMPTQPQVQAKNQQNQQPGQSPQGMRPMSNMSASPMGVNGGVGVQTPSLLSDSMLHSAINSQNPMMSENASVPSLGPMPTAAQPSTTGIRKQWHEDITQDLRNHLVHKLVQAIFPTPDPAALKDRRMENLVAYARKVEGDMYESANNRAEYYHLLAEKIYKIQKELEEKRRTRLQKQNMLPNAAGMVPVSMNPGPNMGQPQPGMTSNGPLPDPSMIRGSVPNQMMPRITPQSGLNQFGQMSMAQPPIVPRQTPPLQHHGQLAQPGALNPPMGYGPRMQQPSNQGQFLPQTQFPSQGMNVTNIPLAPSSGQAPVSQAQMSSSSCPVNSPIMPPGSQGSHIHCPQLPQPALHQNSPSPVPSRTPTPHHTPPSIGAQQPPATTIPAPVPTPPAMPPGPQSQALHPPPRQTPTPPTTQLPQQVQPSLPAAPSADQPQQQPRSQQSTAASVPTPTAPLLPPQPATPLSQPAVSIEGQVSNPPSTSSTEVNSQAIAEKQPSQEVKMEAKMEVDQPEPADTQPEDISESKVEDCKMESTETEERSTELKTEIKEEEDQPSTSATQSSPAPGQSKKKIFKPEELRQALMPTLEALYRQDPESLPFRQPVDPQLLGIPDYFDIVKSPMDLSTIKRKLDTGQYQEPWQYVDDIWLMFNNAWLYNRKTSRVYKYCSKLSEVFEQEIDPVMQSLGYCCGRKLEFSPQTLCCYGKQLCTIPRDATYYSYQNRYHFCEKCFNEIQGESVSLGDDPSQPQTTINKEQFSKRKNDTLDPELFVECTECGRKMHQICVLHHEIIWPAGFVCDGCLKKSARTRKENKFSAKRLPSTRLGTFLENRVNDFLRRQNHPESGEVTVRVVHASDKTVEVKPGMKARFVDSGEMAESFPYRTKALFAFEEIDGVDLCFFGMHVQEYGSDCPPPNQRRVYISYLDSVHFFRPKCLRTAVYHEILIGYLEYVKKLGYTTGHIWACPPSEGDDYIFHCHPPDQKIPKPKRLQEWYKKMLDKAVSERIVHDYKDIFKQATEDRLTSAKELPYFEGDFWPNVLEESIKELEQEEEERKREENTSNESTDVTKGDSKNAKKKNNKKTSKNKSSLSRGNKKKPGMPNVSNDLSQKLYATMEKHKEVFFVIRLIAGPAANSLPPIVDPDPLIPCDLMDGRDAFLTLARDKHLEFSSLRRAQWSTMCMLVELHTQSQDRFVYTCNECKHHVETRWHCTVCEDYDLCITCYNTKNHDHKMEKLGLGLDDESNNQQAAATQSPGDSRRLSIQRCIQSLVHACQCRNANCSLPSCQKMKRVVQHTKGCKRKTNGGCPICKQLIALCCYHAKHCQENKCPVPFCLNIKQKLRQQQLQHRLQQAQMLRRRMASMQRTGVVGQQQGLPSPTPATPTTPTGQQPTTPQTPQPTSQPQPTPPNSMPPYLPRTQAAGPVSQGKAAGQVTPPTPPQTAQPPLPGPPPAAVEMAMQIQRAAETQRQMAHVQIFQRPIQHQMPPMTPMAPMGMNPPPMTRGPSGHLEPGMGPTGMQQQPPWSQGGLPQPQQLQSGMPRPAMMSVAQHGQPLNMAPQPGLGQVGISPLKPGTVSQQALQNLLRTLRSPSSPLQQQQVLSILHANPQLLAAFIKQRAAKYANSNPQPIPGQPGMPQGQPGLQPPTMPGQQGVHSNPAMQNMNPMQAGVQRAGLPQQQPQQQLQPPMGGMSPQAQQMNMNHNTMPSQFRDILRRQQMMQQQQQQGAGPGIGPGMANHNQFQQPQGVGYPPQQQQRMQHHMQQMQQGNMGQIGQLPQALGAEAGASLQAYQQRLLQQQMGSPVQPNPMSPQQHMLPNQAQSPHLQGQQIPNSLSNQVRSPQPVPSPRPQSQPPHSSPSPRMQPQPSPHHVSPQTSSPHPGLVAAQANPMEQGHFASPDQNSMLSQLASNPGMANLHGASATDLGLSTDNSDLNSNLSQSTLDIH
Experimental: Inhibition of p300 acetyltransferase activity. p300 enzyme assays were carried out with TA, TA-NAc, and TA-R2 using commercially available recombinant p300, and recombinant, commercial Histone H3 and tritiated acetyl CoA as the substrates. P300 assays were performed in the presence of increasing concentrations of each compound and acetylation of […] was evaluated by scintillation counting of Histone H3 adsorbed to 1 cm×1 cm nitrocellulose squares, after extensive washing of the nitrocellulose squares with 20% trichloroacetic acid.
as §1

For COC(=O)[C@H]1CC[C@H](CNC(=N)N)CC1.Cl [TA-R1-OMe, amino((((1r,4r)-4-(methoxycarbonyl)cyclohexyl)methyl)amino)methaniminium chloride], the “solubility: concentration of solution prepared” value ([1]; phosphate buffered saline (PBS) buffer (pH=7.4)) was 2 % (w/v) and the “fold lower IC50 than TA (cytotoxicity)” value [2] was “approximately 10 fold”.
With COC(=O)[C@@H]1CCC[C@H](CNC(=N)N)C1.Cl (relative stereo) [TA-R3-OMe, cis-amino(((3 (methoxycarbonyl)cyclohexyl)methyl)amino)methaniminium chloride] the “solubility: concentration of solution” value [1] was “ca. 2%” and the “fold lower IC50 than TA (cytotoxicity)” value [2] was “approximately 10 fold”.
With CC(=O)NCC1CCC(C(=O)[O-])CC1.[Na+] (stereo not drawn) [TA-NAc, reference compound] the “aqueous solubility (in words)” value [1] was “better aqueous solubility” and the PD-L1 expression [3] was “do not”.
In the case of Cl.N=C(N)NC[C@H]1CCC[C@@H](C(=O)O)C1 (relative stereo) [TA-R3, cis-amino(((3-carboxycyclohexyl)methyl)amino)methaniminium chloride], the “aqueous solubility (in words)” value [1] is reported as “insolubility; also recorded: poor aqueous solubility”, the “solubility: concentration of solution” value [1] is reported as roughly 0.1% and the “fold lower IC50 than TA (cytotoxicity)” value [2] is reported as “approximately 10 fold”.
For Cl.N=C(N)N[C@H]1CC[C@H](C(=O)O)CC1 [TA-R2, amino(((1r,4r)-4-carboxycyclohexyl)amino)methaniminium chloride], the “expression of the MYC oncogene at 0.5%” value ([4]; 0.5%) was “downregulated MYC”, the “expression of the MYC oncogene at 2% (w/v)” value ([4]; 2% (w/v), compared with TA) was “downregulated expression of the MYC oncogene” and the “expression of the MYC oncogene” value ([4]; compared with TA and TA-NAc at the same concentrations) was “decreases expression of the MYC oncogene to a greater extent than TA or NAc-TA”. For the same compound, the “aqueous solubility (in words)” value [1] was “good aqueous solubility”, the PD-L1 expression [3] was “decreases programmed death-ligand 1 (PD-L1)” and the “histone acetylation at 2% (w/v) compared with TA” value ([5]; 2% (w/v)) was “reduced histone acetylation to a greater extent than TA”. For the same compound, the “p300 acetylation of Histone 3 (H3) in vitro” value [5] was “decreases histone acetylation more strongly than the other two compounds”.
For NC[C@H]1CC[C@H](C(=O)O)CC1 [TA, Tranexamic acid, reference compound], the PD-L1 expression [3] was “do not” and the “p300 acetylation of Histone 3 (H3) in vitro” value [5] was “does not affect”.
In the case of N=C(N)NC[C@H]1CC[C@H](C(=O)O)CC1 [TA-R1, trans-4-guanidinomethylcyclohexanecarboxylic acid], the “aqueous solubility (in words)” value [1] is reported as “poor aqueous solubility”.
For N=C(N)NC[C@@H]1CC[C@H](C(=O)O)C1 (relative stereo) [TA-R4, cis-3-(guanidinomethyl)cyclopentane-1-carboxylic acid], the “aqueous solubility (in words)” value [1] was “sufficient solubility” and the “solubility: concentration of solution” value [1] was “ca. 2%”.
